Holding throughout (assay type): cell-based
Data set [1] has as its system AR. As to the kind of experiment: Immunofluorescence staining of AR in 22Rv1-MDVR cells. To be noted: MDV3100 10 μM, ARN509 10 μM or SH-I-125 1 μM, 24 hours. As to the method: […]. AR and AR-V7 expression levels were assessed.
Immunofluorescence staining was performed as described in Amin et al., Mol. Cancer Ther., 13:341-52 (2014).

Another data set concerns VCaP-MDVR cells. As to the kind of experiment: Caspase-Glo 3/7 activity assay, VCaP-MDVR cells. Particulars: SH-I-125 1 μM, 3 days. As to the method:
Caspase 3/7 activity was measured using Caspase-Glo 3/7 substrates. Data represent mean of three independent experiments with quadruplicate samples; bars, SEM.
The emergence of resistance to clinical anti-androgens is an ongoing problem in the treatment of castration-resistant prostate cancer.

Data set [2] has as its system VP16-Gal4DBD fusion protein. Put plainly: VP16-Gal4DBD / UAS-luc reporter, negative control. To be noted: SH-I-125 1 μM, 24 hours. The method, then: 22Rv1 cells were co-transfected with VP16 activation domain-Gal4DBD fusion protein and Gal4UAS-TATA-luciferase reporter and treated with SH-I-125 (1 μM) for 24 hours. Luciferase activity was measured and normalized with Renilla luciferase. Columns, mean of three independent experiments with quadruplicate samples; bars, SEM.
The N-terminal domain of the AR (AR NTD) is known to be its transactivation domain, essential for ligand-independent AR activation. Mahanine is able to inhibit AR activation induced by ligand-independent mechanisms such as forskolin and interleukin-6, which activate the AR NTD. […] As a negative control, a constitutively active VP16-Gal4DBD fusion protein and the UAS-luc reporter were co-expressed in […]. […] […].

Another data set concerns 22Rv1 cells. As to the kind of experiment: MTT cell viability assay, 22Rv1 cells. Particulars: 3 days. The method, then: (§1) Cells were treated in the manner indicated below for the specified period of time. MTT assay was performed as described in Amin et al., Mol. Cancer Ther., 13:341-52 (2014).
(§2) To determine the effects of SH-I-125 on prostate cancer cell growth, 22Rv1 cells were treated with SH-I-125 and cell viability was measured after a period of 3 days. […]. In comparison, non-tumorigenic primary prostate epithelial cells (PrEC) retained 80% viability in the presence of a similar range of doses of SH-I-125, showing that tumorigenic cells are more susceptible to the growth inhibitory properties of SH-I-125 compared to non-tumorigenic cells (FIG. 8B). […] Staurosporine was used as a positive control for cell death induction in live and dead assays (FIG. 9C).
In general terms: Tetrazolium dyes change colour on reduction, which living cells bring about.

Data set [3] has as its system AR. Put plainly: 22Rv1-MDVR-ARE-luc luciferase reporter assay. To be noted: 22Rv1-MDVR-ARE-luc cells, range of doses, 24 hours. As to the method:
[…]. Luciferase activity was measured and plotted as a percentage of control. Data represent the mean of three independent experiments with quadruplicate samples; bars, SEM. ***, p value <0.001 determined by ANOVA.
VCaP-MDVR and 22Rv1-MDVR stably expressing ARE-luciferase construct (VCaP-MDVR-ARE-luc and 22Rv1-MDVR-ARE-luc) were generated as described above in the Materials and Methods section. […].
(In general: A reporter such as luciferase makes a cellular process visible.)

Data set [4] addresses T1, AR (Homo sapiens, UniProt P10275).
T1 construct: Androgen-dependent VCaP cells were made to stably express an androgen-response element luciferase reporter (VCaP-ARE-luc); host or cells: VCaP / VCaP-ARE-luc
T1 sequence (P10275 1-920): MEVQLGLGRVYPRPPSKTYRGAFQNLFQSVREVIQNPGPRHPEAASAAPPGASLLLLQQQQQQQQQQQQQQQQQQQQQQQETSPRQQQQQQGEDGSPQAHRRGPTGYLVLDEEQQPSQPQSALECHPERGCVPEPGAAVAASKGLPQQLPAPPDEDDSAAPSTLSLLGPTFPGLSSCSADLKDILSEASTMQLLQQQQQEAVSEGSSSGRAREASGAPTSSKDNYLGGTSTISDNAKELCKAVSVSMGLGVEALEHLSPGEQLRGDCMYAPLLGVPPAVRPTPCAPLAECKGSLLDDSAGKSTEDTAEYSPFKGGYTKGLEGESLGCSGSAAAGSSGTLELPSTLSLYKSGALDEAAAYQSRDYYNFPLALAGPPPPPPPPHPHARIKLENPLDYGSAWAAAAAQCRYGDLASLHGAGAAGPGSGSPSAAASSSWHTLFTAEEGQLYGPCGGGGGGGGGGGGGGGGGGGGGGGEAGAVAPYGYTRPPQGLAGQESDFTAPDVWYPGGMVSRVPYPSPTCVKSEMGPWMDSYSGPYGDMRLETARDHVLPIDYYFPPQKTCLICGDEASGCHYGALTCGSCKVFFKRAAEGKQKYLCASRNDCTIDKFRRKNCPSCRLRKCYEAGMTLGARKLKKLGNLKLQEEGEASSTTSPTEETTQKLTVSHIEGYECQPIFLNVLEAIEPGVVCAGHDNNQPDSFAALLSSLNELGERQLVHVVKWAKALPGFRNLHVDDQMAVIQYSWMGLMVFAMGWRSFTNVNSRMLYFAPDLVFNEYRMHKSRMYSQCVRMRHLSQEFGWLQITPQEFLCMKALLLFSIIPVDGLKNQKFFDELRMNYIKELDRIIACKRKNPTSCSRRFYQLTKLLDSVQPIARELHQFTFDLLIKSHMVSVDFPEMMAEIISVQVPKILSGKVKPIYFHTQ
Put plainly: Immunofluorescence staining and Western blot of AR and PSA in VCaP cells. Particulars: DHT 1 nM, MDV3100 10 μM or SH-I-125 1 μM, 24 hours. As to the method:
Androgen receptor (AR) and PSA expression levels were assessed.
AR and PSA expression levels were assessed. B-actin was used as a loading control.
(In general: A western blot detects proteins with antibodies after separation by electrophoresis.)

Another data set relates to AR and AR-V7. Put plainly: Western blot of AR and AR-V7 levels in 22Rv1 cells. The method, then:
AR levels were assessed by Western blotting. β-actin was used as a loading control.
(§3) AR and AR-V7 levels were assessed. β-actin was used as a loading control.
as §3
MG132 (5 μM), a known proteasome inhibitor, was added on Day 2. AR expression was assessed by Western blotting. β-actin was used as a loading control.

Data set [5] addresses T2, AR NTD-Gal4DBD fusion protein (Homo sapiens, UniProt P10275).
T2 construct: expressed in transfected cells; host or cells: VCaP
Put plainly: AR NTD-Gal4DBD / Gal4UAS-luciferase reporter in VCaP cells, forskolin-induced. Particulars: forskolin 50 μM, 24 hours. The method, then:
VCaP cells were co-transfected with AR-NTD-Gal4DBD expression vector and Gal4UAS-TATA-luciferase reporter construct and optionally treated with forskolin (FSK) (50 μM) for 24 hours.
The N-terminal domain of the AR (AR NTD) is known to be its transactivation domain, essential for ligand-independent AR activation.

A short description of data set [6]: MTT cell viability assay, PrEC cells. Particulars: human, non-tumorigenic primary prostate epithelial cells (PrEC), similar range of doses, read-out: cell viability retained. The method, then: as §1, §2

By viability is commonly meant a per cent measure of how many cells are alive, often set against a control.

T2 sequence (P10275 with tags, fused parts or gaps limits assumed): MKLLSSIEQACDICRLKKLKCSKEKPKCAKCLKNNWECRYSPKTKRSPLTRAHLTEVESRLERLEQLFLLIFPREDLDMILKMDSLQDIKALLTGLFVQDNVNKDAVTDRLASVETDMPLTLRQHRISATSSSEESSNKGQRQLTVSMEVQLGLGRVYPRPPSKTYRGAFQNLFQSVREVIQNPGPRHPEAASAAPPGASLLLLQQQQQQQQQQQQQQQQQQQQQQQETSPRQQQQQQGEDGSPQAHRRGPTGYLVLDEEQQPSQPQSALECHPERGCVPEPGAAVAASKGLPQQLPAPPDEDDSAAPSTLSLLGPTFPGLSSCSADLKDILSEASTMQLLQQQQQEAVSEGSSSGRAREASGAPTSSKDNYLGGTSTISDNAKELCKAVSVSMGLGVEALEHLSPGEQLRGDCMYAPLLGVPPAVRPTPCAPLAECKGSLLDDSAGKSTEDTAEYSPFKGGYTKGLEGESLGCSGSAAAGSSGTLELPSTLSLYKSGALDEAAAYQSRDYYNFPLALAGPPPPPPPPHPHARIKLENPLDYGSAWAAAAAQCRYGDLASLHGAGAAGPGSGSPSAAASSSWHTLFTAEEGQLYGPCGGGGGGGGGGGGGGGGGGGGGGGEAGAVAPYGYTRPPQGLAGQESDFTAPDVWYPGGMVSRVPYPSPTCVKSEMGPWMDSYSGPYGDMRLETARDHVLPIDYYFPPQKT

With `COc1ccc2c(c1)[nH]c1c(C)c(OS(=O)(=O)c3cccc4ccccc34)ccc12` [SH-I-125, 7-methoxy-1-methyl-9H-carbazol-2-yl naphthalene-1-sulfonate], the AR nuclear localization result in the data set on AR [1] is given as “decreased AR nuclear levels”. Further, the “caspase 3/7 activation” value with VCaP-MDVR cells is “inducing caspase activation”. For the same compound, the VP16-Gal4DBD luciferase activity result in [2] is listed as “did not affect luciferase activity”. In the data set with 22Rv1 cells (MTT), the “potency relative to natural-derived and synthetically-derived mahanine in preventing growth” value is on record as “ten-fold”. Also, the viability at 1 µM with 22Rv1 cells (Homo sapiens, 72 h, dose of 1 μM, read-out: cell viability, of control) was found to be 50%. Moreover, in the data set with AR [3], the “luciferase activity (AR activity)” value is reported as “retained its inhibitory effect”. At AR [4], the AR nuclear localization result was “blocked AR nuclear localization” and the PSA expression result is recorded as “inhibited PSA expression”. In the data set on AR and AR-V7 (3 days, SH-I-125 at 1 μM), the “cellular AR and AR-V7 levels” value is “reduced AR and AR-V7 levels”. In the data set with AR and AR-V7 (SH-I-125 plus MG132), the “AR and AR splice variant levels in the presence of proteasome inhibitor MG132” value was “Proteasome inhibition rescued the decline”. Also, in [5], the “forskolin-induced AR activation (AR NTD-Gal4DBD luciferase)” value was “significantly inhibited forskolin-induced AR activation”. Besides, the viability at 3 days in data set [6] is 80%.

The values above are taken from patent publication US10487056B2, “Small molecule androgen receptor inhibitors and methods of use thereof” (GEORGETOWN UNIVERSITY, priority 2015, dated 2019).
